Source: patent US10830762B2, “Compositions and methods for inducing conformational changes in cereblon and other E3 ubiquitin ligases” (Celgene Corporation, priority 2015, dated 2020)

Assays:
[1] = tested on: TMD8 (ABC) or Karpas 422 (GCB) cells; experiment: 3H-thymidine incorporation proliferation assay with lenalidomide co-treatment; format: cell-based
[2] = target: MBP-IKZF1 (a.a. 140-168) / CRBN-DDB1 (Homo sapiens, UniProt Q13422+Q96SW2); settings: 100 uM compound; IKZF1 domain with one predicted zinc finger
DF15R myeloma cells = experiment: Cell proliferation assay of DF15R cells re-expressing wild type or mutant CRBN treated with pomalidomide; format: cell-based
Protocol: (A) Cell lines re-expressing full-length CRBN wild-type. W386A or W400A mutants were tested for the ability to bind immunomodulatory agent compounds. Assay was repeated at least three times. Representative Western blot of representative experiment is shown. (B) Cell proliferation assay of DF15 (sensitive). DF15R (resistant; CRBN^null), CRBNWT, CRBNW386A; CRBN400 cells treated with a dose response of pomalidomide. Assays were done in triplicate and error bars representative s.d. Data for each cell line was normalized to treatment with vehicle (DMSO). (C) Western blots of key downstream effectors of immunomodulatory agent resistance.
(A) Cell lines re-expressing RFP or full length CRBN wild type or E377V mutant were tested for the ability of CRBN proteins to bind immunomodulatory agent compounds. Assay was repeated at least three times. Representative Western blot of representative experiment is shown. (B) Cell proliferation assay of DF15 (sensitive), DF15R (resistant; CRBN^null), CRBN^WT, CRBN^E377V cells treated with a dose response of pomalidomide. Assays were done in triplicate and error bars represent s.d. Data for each cell line was normalized to treatment with vehicle (DMSO).
The antiproliferative effect of immunomodulatory agent compounds on myeloma cells is mediated through CRBN protein. […]

CRBN [3] = target: T1, CRBN (Homo sapiens, UniProt Q96SW2, E377V); experiment: Thalidomide analog bead assay with extracts of DF15R cells re-expressing wild type or mutant CRBN; format: binding; settings: CRBN E377V mutant; preincubation of cell extracts with free compound
T1 construct: re-express full length wild type (CRBN^WT); expressed in transfected cells; host or cells: DF15R (CRBN-deficient myeloma) cells, lentiviral transduction, cell extract
Protocol: (§1) DF15, DF15R or DF15R derived cell line extracts were prepared in NP 40 lysis buffer (0.5% NP40, 50 mM Tris HCl (pH 8.0), 150 mM NaCl, 0.5 mM DTT, 0.25 mM PMSF, 1× protease inhibitor mix (Roche, Indianapolis, Ind.) at approximately 2×10^8 cells per ml […]. Cell debris and nucleic acids were cleared by centrifugation (14,000 rpm 30 min 4° C.). In competition experiments 0.5 ml (3-5 mg protein) aliquots of the resulting extracts were preincubated (15 min room temp.) with 5 μl DMSO (control) or 5 μl compound at varying concentrations in DMSO. Thalidomide analog-coupled beads (0.3-0.5 mg) were added to protein extracts and samples rotated (2 hours, 4° C.). Beads were washed three times with 0.5 ml NP40 buffer, and then bound proteins were eluted with SDS-PAGE sample buffer.
(§2) Cell extracts from these lines were then used to assay the ability of CRBN to bind immunomodulatory agent compound.
(§3) Cell extracts from this line were used to assay the ability of CRBN^E377V to bind Immunomodulatory agent compound.

CRBN [4] = target: CRBN (Homo sapiens, UniProt Q96SW2); experiment: as above; format: binding; set-up: re-express full length wild type (CRBN^WT); expressed in transfected cells; host or cells: DF15R (CRBN-deficient myeloma) cells, lentiviral transduction, cell extract; settings: recombinant CRBN WT expressed in DF15R; preincubation of cell extracts with free compound
Protocol: as §1, §2, §3

human PBMCs = experiment: IL2 release co-stimulation in human PBMCs treated with anti-CD3; format: cell-based
mouse splenocytes = experiment: IL2 induction in mouse splenocytes / mouse PBMC treated with anti-CD3; format: cell-based
Source text: Data are shown as mean±s.d. (B) Costimulation of IL2 release by anti-CD28 (squares) or pomalidomide (circles) in mouse PBMC treated with anti-CD3. Data are shown as mean±s.d.

[5] = tested on: H929 and U266 multiple myeloma cell lines; experiment: Cell viability by flow cytometry in CRBN inducible shRNA knockdown cells; format: cell-based; settings: CRBN inducible knockdown vs shControl; 5 day treatment
Protocol: (A) An inducible shRNA construct targeting CRBN or a control construct was transduced into the multiple myeloma cell lines H929 and U266. Inducible shRNA expression (marked by turbo-RFP) was monitored by flow cytometry over a period of 1 to 9 days as indicated in the histograms (Top row). […] (B) CRBN protein expression was quantified by Western blotting. […] (D)-(F) After 9 days of shRNA inducible knock-down, cells were treated with increasing doses of pomalidomide and compound effect in cell viability was assayed by flow cytometry after 5 day treatment. […] Data are shown as mean of three independent experiments±s.d.
Inducible shRNA constructs targeting CRBN or a control construct (Open Biosystems) were transduced using spinoculation methodology into the multiple myeloma cell lines H929 and U266. Stably transduced cells were selected with puromycin. Inducible shRNA expression (marked by RFP) was monitored by fluorescence microscopy and flow cytometry using 1 μg/mL doxycycline. CRBN protein expression was quantified by Western blotting. Cell proliferation and viability were assessed by 7AAD/flow cytometry assays.

## Nc1cccc2c1CN(C1CCC(=O)NC1=O)C2=O (stereo not drawn) [lenalidomide, 3-(4-amino-1-oxo-1,3-dihydro-isoindol-2-yl)-piperidine-2,6-dione, reference compound]
[1]; co-culture with Compound A or Compound C
  competition for CRBN: competes with Compound A and Compound C for CRBN

## Nc1cccc2c1C(=O)N(C1CCC(=O)NC1=O)C2=O (stereo not drawn) [pomalidomide]
[2]
  pull down of CRBN-DDB1 by minimal IKZF1 domain: sufficient to pull down CRBN-DDB1
DF15R myeloma cells; DF15R re-expressing CRBN E377V
  antiproliferative sensitivity: unable to rescue sensitivity
DF15R myeloma cells; DF15R re-expressing CRBN WT
  antiproliferative effect: regained antiproliferative effect
CRBN [3]
  competition for CRBN binding to thalidomide analog-beads: competed
CRBN [4]
  competition for CRBN binding to thalidomide analog-beads: competed for binding to the beads
Human PBMCs
  IL2 release: Co-stimulation of IL2 release
Mouse splenocytes
  IL-2 induction: resistant to the IL-2 inducing effects
[5]
  anti-proliferative effects in CRBN knockdown cells: reduced anti-proliferative effects

## Cc1nc2cccc(N)c2c(=O)n1C1CCC(=O)NC1=O (stereo not drawn) [Compound A, 3-(5-amino-2-methyl-4-oxo-4H-quinazolin-3-yl)-piperidine-2,6-dione]
[1]; co-treatment with 10 μM lenalidomide, 3H-thymidine incorporation
  anti-proliferative effects on co-treatment with lenalidomide: blocks anti-proliferative effects

## O=C1CCC(N2C(=O)c3ccccc3C2=O)C(=O)N1 (stereo not drawn) [thalidomide]
CRBN [3]
  competition for CRBN binding to thalidomide analog-beads: competed
CRBN [4]
  competition for CRBN binding to thalidomide analog-beads: competed for binding to the beads
